# Assay results: ChEMBL document CHEMBL2010717, “Design of oxobenzimidazoles and oxindoles as novel androgen receptor antagonists” (Bioorg Med Chem Lett, 2012)
# Legend:
# Androgen receptor = biological target: T1, Androgen receptor (Homo sapiens, UniProt P10275); assay: Antagonist activity at androgen receptor in human LNAR cells expressing ARE-PSA-LUC by luminescence analysis in presence of R1881; assay type: functional, cell-based
# T1 sequence (P10275 whole entry): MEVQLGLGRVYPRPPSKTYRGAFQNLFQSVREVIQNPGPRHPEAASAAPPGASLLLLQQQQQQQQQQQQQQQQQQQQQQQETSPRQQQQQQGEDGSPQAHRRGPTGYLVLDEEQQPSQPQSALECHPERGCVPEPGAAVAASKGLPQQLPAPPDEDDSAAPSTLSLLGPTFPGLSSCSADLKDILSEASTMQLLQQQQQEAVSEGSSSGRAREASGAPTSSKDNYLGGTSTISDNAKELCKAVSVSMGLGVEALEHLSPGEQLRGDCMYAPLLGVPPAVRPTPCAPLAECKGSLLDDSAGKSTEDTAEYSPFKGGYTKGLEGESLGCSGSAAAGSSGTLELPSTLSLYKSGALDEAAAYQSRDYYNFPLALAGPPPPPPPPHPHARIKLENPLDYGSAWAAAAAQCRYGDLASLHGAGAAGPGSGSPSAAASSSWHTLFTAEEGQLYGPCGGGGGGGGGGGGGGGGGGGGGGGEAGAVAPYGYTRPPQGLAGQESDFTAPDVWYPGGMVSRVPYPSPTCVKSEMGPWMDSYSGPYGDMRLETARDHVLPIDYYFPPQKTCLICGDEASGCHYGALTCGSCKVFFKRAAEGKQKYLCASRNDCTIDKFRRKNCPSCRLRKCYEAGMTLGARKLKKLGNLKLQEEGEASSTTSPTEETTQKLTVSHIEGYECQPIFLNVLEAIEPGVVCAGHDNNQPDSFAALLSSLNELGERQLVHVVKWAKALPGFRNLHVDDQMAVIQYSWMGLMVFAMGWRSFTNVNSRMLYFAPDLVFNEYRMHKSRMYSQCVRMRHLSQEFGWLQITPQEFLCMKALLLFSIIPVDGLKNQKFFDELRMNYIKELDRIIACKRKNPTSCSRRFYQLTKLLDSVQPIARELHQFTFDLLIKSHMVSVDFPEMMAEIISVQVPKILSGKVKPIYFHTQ
# [1] = biological target: T2, Androgen receptor (Homo sapiens) (UniProt P10275); assay: Agonist activity at androgen receptor in human LNAR cells expressing ARE-PSA-LUC at 1 uM by luminescence analysis relative to RD-162; assay type: functional, cell-based
# T2 sequence (whole entry): T1 sequence (P10275 whole entry)
# [2] = Aqueous solubility of the compound; assay type: physicochemical
# [3] = biological target: T2, Androgen receptor (Homo sapiens); assay: Antagonist activity at androgen receptor in human LNAR cells expressing ARE-PSA-LUC at 1 uM by luminescence analysis in presence of R1881; assay type: functional, cell-based
# [4] = Metabolic stability in human liver microsomes assessed as extraction ratio; assay type: ADME, Microsome; details: read-out: ERH
SMILES,IC50 (Androgen receptor) [nM],fold change (FC) [1],"solubility ([2]; aqueous, read-out: solubility) [µM]",inhibition [3] [%],hepatic extraction ratio [4],solubility ([2]; buffer) [µM]
CC(c1nc(-c2ccccn2)no1)n1c(=O)n(-c2ccc(C#N)c(Cl)c2)c2ccccc21 (stereo in doubt; (-)-23) [listing 1 of 2 here],189,,,,,
N#Cc1ccc(-n2c(=O)n(Cc3ccccc3)c3cccnc32)cc1C(F)(F)F,60.6,1.13,< 0.5,,,
N#Cc1ncc(-n2c(=O)n(Cc3ccccc3)c3ccccc32)cc1C(F)(F)F,,1.04,5.3,91,,
CC(c1ccccc1)n1c(=O)n(-c2ccc(C#N)c(C(F)(F)F)c2)c2ccccc21 (stereo in doubt; (-)-20) [listing 1 of 2 here],,0.833,,,,
CCn1c(=O)n(-c2ccc(C#N)c(C(F)(F)F)c2)c2ccccc21,293,1.08,3.47,,,
CNC(=O)c1ccc(-c2ccc3c(c2)C(C)(C)C(=O)N3c2ccc(C#N)c(OC)c2)cc1F,165,0.884,9.7,,< 0.25,
COc1cc(N2C(=O)C(C)(C)c3cc(-c4cccnc4OC)ccc32)ccc1C#N,79.6,1.04,9.8,,,
N#Cc1ccc(-n2c(=O)n(Cc3cccnc3)c3ccccc32)cc1C(F)(F)F,389,0.984,2.5,,,
N#Cc1ncc(-n2c(=O)n(Cc3ccccc3)c3cccnc32)cc1C(F)(F)F,,1.1,1.7,96.3,,
CC(c1nc(-c2ccccn2)no1)n1c(=O)n(-c2ccc(C#N)c(Cl)c2)c2ccccc21 (stereo in doubt; (-)-23) [listing 2 of 2 here],,0.945,,,,
N#Cc1ccc(-n2c(=O)n(Cc3ccccn3)c3ccccc32)cc1C(F)(F)F,301,1.03,12,,,
"CC(c1ccccc1)n1c(=O)n(-c2ccc(C#N)c(C(F)(F)F)c2)c2ccccc21 (single isomer, unassigned; (+)) [listing 1 of 2 here]",292,,,,,4.41
"CC(c1nc(-c2ccccn2)no1)n1c(=O)n(-c2ccc(C#N)c(Cl)c2)c2ccccc21 (single isomer, unassigned; (+)) [listing 1 of 2 here]",,0.874,,,,
N#Cc1ccc(-n2c(=O)n(Cc3nc(-c4ccccn4)no3)c3ccccc32)cc1Cl,126,0.941,5.9,,,
Cc1ccc(-n2c(=O)n(-c3ccc(C#N)c(C(F)(F)F)c3)c3ccccc32)cc1,,0.88,0.79,12.6,,
CNC(=O)c1ccc(Cn2c(=O)n(-c3ccc(C#N)c(C(F)(F)F)c3)c3ccccc32)cc1F,,1.08,9.9,72.5,,
CNC(=O)c1ccc(-n2c(=O)n(-c3ccc(C#N)c(C(F)(F)F)c3)c3ccccc32)cc1F,,1.44,8.81,28.7,,
CNC(=O)c1ccc(-c2ccc3c(c2)C(C)(C)C(=O)N3c2ccc(C#N)c(C(F)(F)F)c2)cc1F,197,0.941,6.25,,0.4,
N#CCn1c(=O)n(-c2ccc(C#N)c(C(F)(F)F)c2)c2ccccc21,,1.42,18.9,94.8,,
CC(c1ccccc1)n1c(=O)n(-c2ccc(C#N)c(C(F)(F)F)c2)c2ccccc21 (stereo in doubt; (-)-20) [listing 2 of 2 here],363,,5.58,,,
N#Cc1ccc(-n2c(=O)n(Cc3ccccc3)c3ncccc32)cc1C(F)(F)F,588,0.951,,,,
N#Cc1ccc(-n2c(=O)n(Cc3ccccc3)c3ccccc32)cc1C(F)(F)F,170,1.04,< 0.16,,,
N#Cc1ccc(-n2c(=O)[nH]c3ccccc32)cc1C(F)(F)F,,6.2,7.9,60.1,,
CC(C)n1c(=O)n(-c2ccc(C#N)c(C(F)(F)F)c2)c2ccccc21,373,0.965,9.3,,,
CC1(C)C(=O)N(c2ccc(C#N)c(C(F)(F)F)c2)c2ccccc21,,1.96,,75.7,,
"CC(c1ccccc1)n1c(=O)n(-c2ccc(C#N)c(C(F)(F)F)c2)c2ccccc21 (single isomer, unassigned; (+)) [listing 2 of 2 here]",,0.904,,,,
"CC(c1nc(-c2ccccn2)no1)n1c(=O)n(-c2ccc(C#N)c(Cl)c2)c2ccccc21 (single isomer, unassigned; (+)) [listing 2 of 2 here]",178,,9.45,,,
